Test results as given in a melting point compilation (Tetko et al.; mined from patent text by program, amines drawn as free bases though some values may be those of a salt).

melting point [°C]	SMILES
192 to 194	CNC(=O)c1ccccc1Nc1nc(Nc2ccc3c(c2)CCN(C(=O)C(F)(F)F)CC3)ncc1Cl
100 to 101	COc1ccc(-c2nc(-c3ccccc3)c(N(C)c3ccccc3)s2)cc1
184 to 187	COc1c(Cl)ccc(-c2cc(N)c(Cl)c(C(=O)NOC(C)(C)C)n2)c1F
68 to 69	COc1cc2ccc(C)cc2c(C)c1OC
196 to 197	CC(C)(C)OC(=O)CN(C(=O)CNC(=O)Nc1ccc(Cl)cc1)c1ccccc1C(=O)c1ccccc1
212 to 214	NC(=O)CN1C(=O)COc2cc(F)ccc21
104 to 105	O=c1ccn(-c2cccc(C(F)(F)F)c2)nc1-c1ccnn1-c1cccc(F)c1
183 to 184	CC(C)=CC(C)(S)[C@@H](NC=O)C(=O)O (stereo not given in full)
168	Cc1cccc(CC(=O)c2ccnc(-c3ccc(OCC(N)=O)cc3)c2)n1
228 to 230	O=C(Nc1ccccn1)c1nc(-c2ccccc2)c2ccccc2c1O
155 to 157	O=C(O)CCC(=NO)c1ccc(-c2ccc(Cl)cc2)cc1
115	O=S(=O)(c1ccc(Cl)c(CBr)c1Cl)N1CCCC1
165 to 166	CCOP(=O)(/C=C/c1cn(-c2ccccc2)nc1OCc1ccc(OCc2nc(-c3ccc(C(=O)O)s3)oc2C)c(OC)c1)OCC
119	CC(C)(C)OC(=O)N1C[C@@H]2C(=O)CCC(c3ccccc3)(c3ccccc3)[C@@H]2C1
71 to 73	COc1ccccc1N1CCN(C2CCN(c3noc4ccccc34)CC2)CC1
245 to 246	CC(C)c1cccc(C(C)C)c1NC(=O)CNC(c1ccccc1)c1ccc(C(=O)O)cc1 (stereo not given)
194	Fc1ccc(-c2nn3cccnc3c2-c2ccncc2)cc1
130 to 132	O=C1C=C(O)CC(CCC2CCCC2)(C2CCCC2)O1 (stereo not given)
140 to 149	O=S(=O)(CC1CC1)c1nc[nH]n1
62 to 65	COc1cc(Br)c(OC)c(CC(=O)O)c1
156 to 157	O=C1CCCc2nc3ccccc3c(NCc3cccc(F)c3)c21
144 to 145	COCCOc1ccc2c(Nc3ccc(Cl)cc3Cl)c(C#N)cnc2c1
166 to 167	COc1ccc(-c2nc(CCBr)nc3cc(OC)c(OC)cc23)cc1OC

melting point [°C]	SMILES
255 to 257	CN(Cc1cccc2c1C(=O)N(C1CCC(=O)NC1=O)C2=O)C(=O)Nc1ccc(Cl)c(Cl)c1 (stereo not given)
95 to 99	Cc1cc(F)ccc1-c1nc(OCC(N)S(C)(=O)=O)nc2c1ccc(=O)n2-c1c(F)cccc1F (stereo not given)
65 to 66	CCOC(=O)c1c(-c2ccccc2C)c2cc(Cl)ccc2oc1=O
270 to 275	O[C@H]1CC[C@@H](Nc2ncc3ncnc(Nc4ccc(F)c(Cl)c4)c3n2)CC1
143 to 145	C#CCN1C(=O)COc2ccc(-n3c(Cl)nc(C(F)(F)F)cc3=O)cc21
65 to 68	CCOC(=O)COc1ccc(OCc2ccccc2)cc1
275 to 278	CC1(C)N=C(Oc2ccnc(O)c2)c2cc(C#N)ccc2O1
112	O=C(O)CCC(=O)c1ccc(CCNS(=O)(=O)CCc2ccc(Cl)cc2)cc1
127 to 129	CCOC(=O)Nc1c(F)cc(Cl)c2nc(C(C)(C)C)oc12
60 to 62	CCN1c2ncccc2C(=O)N(C)c2ccc(-c3cnn(CC)c3)nc21
125	Cc1cc(COc2c(Cl)cc(CSc3ccc4ccccc4c3)cc2Cl)oc(=O)c1
164 to 170	Nc1nc(N)nc(-c2cccc(-n3cccc3)c2)n1
85.5 to 87.5	CCOC(=O)C1=C(C)N=C(SCc2ccccc2)N(C(=O)OCC)C1c1ccccc1C(F)(F)F (stereo not given)
60 to 61	COC(=O)c1cc(-c2ccc(C(F)(F)F)cc2)oc1COC(C)=O
174 to 175	CCc1cn(-c2nc(C)nc(NC)n2)c2ccccc12
175	N#Cc1cc(C(F)(F)F)cc(C(=O)Nc2ccc(Cl)c(Cl)c2)c1N1CCCCC1
236 to 238	CC1(C)CC(=O)c2c(nc(C3CCCC3)c(C(=O)c3ccc(C(F)(F)F)cc3)c2-c2ccsc2)C1
164 to 166	Cc1cc(O)c(N2CC(=O)NS2(=O)=O)c(F)c1
100 to 103	CC(=O)c1ccc2c(c1)oc(=O)n2CCCCl
241 to 242	CCCOc1ccc2oc(-c3ccc4c(c3)C=C(C(=O)Nc3ccc(CN(C)C5CCOCC5)cc3)CCS4(=O)=O)cc2c1
186	COc1ccc(CCNc2nc(Cl)nc(NCCc3ccc(OC)c(OC)c3)n2)cc1OC
109 to 110	O=C1NC(=O)C(Sc2ccc(Cl)cc2)S1 (stereo not given)
183 to 185	OCC1CCN(c2ccncc2)CC1

melting point [°C]	SMILES
150 to 152	CCOC(=O)c1cnc2onc(C)c2c1O
145 to 155	CCC1CN(C2C(=O)N(c3c(Cl)cc(Cl)cc3Cl)N=C2NC(=O)c2cccc(NC(=O)COc3ccc(C(C)(C)CC)cc3C(C)(C)CC)c2)CCC1C (stereo not given)
87 to 89	CCCN(CCCNc1c(Cl)cn[nH]c1=O)CCOc1cccc2c1OCCO2
149 to 154	O=S1(=O)c2ccccc2NC2CCCN21 (stereo not given)
125 to 127	C=CCn1c(SCc2cnn(-c3c(Cl)cc(C(F)(F)F)cc3Cl)n2)nc(C#N)c1C#N
100 to 104	O=C(O)CCC(Oc1cccc(OCc2ccccc2)c1)c1ccccc1 (racemic)
135	COC=C(C(=O)OC)N(C)c1cccc(-c2ccc(Cl)cc2)n1
123 to 125	Cc1oc(-c2ccccc2)nc1COc1ccc(COc2ccccc2CC(=O)O)cn1
74 to 76	CCCN(CC)c1cc(C)nc(Oc2c(C)cc(Cl)cc2C)c1C
134 to 140	COc1ccc(S(=O)(=O)n2c(CCCC(=O)O)cc3nc(Cl)ccc32)c(C)c1
153 to 155	Cc1nc(/C=C/c2ccc3ccccc3n2)cc(-n2nc(C)nc2C)n1
225	O=c1ccc2c([nH]1)C(Nc1ccccc1)CCC2 (stereo not given)
154 to 156	S=C(CCC(c1ccccc1)(c1ccccc1)c1ccccc1)Oc1c(Cl)c(Cl)c(Cl)c(Cl)c1Cl
198 to 200	Cc1cccc(C)c1-n1cc(C#N)c(=O)n(C)c1=O
62 to 63	COC1=C(Cc2ccc(Cl)cc2)C(=O)CC(C)(C)C1
148 to 150	c1ccc(C(Nc2ccncc2)c2ccccc2)cc1
142 to 144	CCOC(=O)c1ccc(C#CC(O)c2cc(C(C)(C)C)cc(C(C)(C)C)c2O)cc1 (stereo not given)
205	C/C(=C\c1ccc2c(c1)OCO2)C(=O)O
197 to 198	COC(=O)C(CC#Cc1cc2c(O)c(C(=O)NCc3ccc(Cl)cc3)cnc2s1)C(=O)OC
238 to 241	CC1(C)CCCC(C)(C)N1Cc1ccc2cc(NC(=O)c3ccc(-c4ccc(F)cc4)cc3)ccc2c1
156 to 157	CCCCC(CCCC)(CC(=O)Nc1cccc(OCc2ccc3ccc(F)cc3n2)c1)C(=O)O

SMILES	melting point [°C]
CNC(C)Cc1ccc(CCCC(=O)O)cc1 (stereo not given)	170 to 172
Nc1ccc2[nH]c(=O)ccc2c1	116 to 118
CCn1c(C)c(C(=O)c2ccc([N+](=O)[O-])cc2C(=O)O)c2ccccc21	203 to 204
